{
  "source": "patent US9851346B2",
  "about": "“Chemical sensitivity screening test” (BRYSON PATENTS INC., priority 2014, dated 2017)",
  "key": {"[1]": {"experiment": "Strip test screening of various compounds (Example 17, FIGS. 10-11; strip composition not stated)", "experimental": "Now referring to FIG. 10, the pain relief medication—ASA, ibuprofen and acetaminophen were screened in the presence of alcohol (Ethanol)—50 ml water and 50 ml of 40% vol/vol ethanol.\nNow referring to FIG. 11, various sweetening agents or table salts were dissolved in 75 ml of filtered water and exposed to UV lamp for 3 minutes or 5 minutes."}, "[2]": {"experiment": "Strip test, Screening Composition 1 (Examples 1-5): fluorescence under UV after contact with dissolved specimen", "conditions": "FIG. 9; increasing amounts dissolved in 50 ml of filtered water; strip test from Example 1", "description": "(§1) Prior to testing, the specimen of substance is placed directly into a solvent. Preferably, the solvent is a solvent such as distilled or filtered water. If the specimen is in tablet form, it should be crushed into a powder form and then added to the solvent. If the specimen is in other form, it is preferably disaggregated into smaller pieces. The powder or pieces are then left to sit in the solvent until dissolved, for a period ranging from a few second to minutes, hours or even days before it may be tested with the composition and/or strip test of the present invention. Preferably, the contact with the solvent is at least eight hours. A liquid or gel form can be put directly into the solvent. […]\nThe contacted test strip is then immediately observed under UV light in a dark room. In the presence of a predicted adverse reaction of the substance, the strip test will show the absence of fluorescence, or the fluorescence will decrease, or even completely disappear over a short period of time (about 90 seconds). […] According to an embodiment, the degree by which fluorescence disappears after initial exposure to the substance may be used to quantify the relative adverseness of the substance. For example, a slow disappearance of fluorescence represents a less adverse substance than a substance for which the fluorescence disappears rapidly over the course of the testing procedure. […]"}, "[3]": {"experiment": "Strip test, Screening Composition 2 (Examples 6-10): fluorescence under UV after contact with dissolved specimen", "conditions": "FIGS. 3-4; observed under UV light, 3 to 5 minutes", "description": "as §1, with “substance to be tested” for “substance”, “powder” for “powder form”, “another” for “other”, “small” for “smaller”, “mixed in and/or dissolved” for “dissolved,”, “seconds” for “second”\nFor testing, the strip test prepared above is placed under UV light in a room with reduced lighting to allow the reaction to be observed, and is contacted with the specimen of substance prepared above. […] In the presence of a predicted adverse reaction of the substance, the strip test will show the absence of fluorescence or the fluorescence will decrease, or even completely disappear over the short period of time (about 3 to 5 minutes). […]\nSee FIGS. 3 and 4 for comparisons of adverse and non-adverse reaction results. The degree by which fluorescence disappears after initial exposure to the substance may be used to quantify the relative adverseness of the substance. […]"}, "[4]": {"experiment": "Strip test, Screening Composition 3 with Activator 1 / Activator 2 (Examples 11-16)", "conditions": "FIGS. 5-8; 3 to 5 minutes under UV light", "experimental": "Once the urine has been provided, it needs to be cooled to a temperature of 18.3° C. This is the best temperature for testing in this case. When preparing for the test, the urine should be divided into two different groups. The first group is to add Activator 1 and observe the reaction. The second group is to add Activator 2 and observe the reaction.\nTo perform the Activator 1 test, take approximately 20 ml of urine and add 5 ml of the activator solution. Allow this to sit for 20 minutes under ultraviolet light. Once the 20 minutes has passed, place the strip test under ultraviolet light in a darkened room and apply approximately 1 ml of urine/Activator 1 solution onto the strip test. After the urine/Activator 1 solution has been applied to the strip test, one simply observes the reaction. […]\nSee FIGS. 5 to 8 for comparisons of presence and absence of the contaminant biomarkers (protein crystals) reaction results. The degree by which fluorescence disappears after initial exposure of urine/activator to the strip test may be used to quantify the relative presence of the factor in the urine. For example, a slow disappearance of fluorescence represents less presence of the pesticide biomarker than a urine/activator sample for which the fluorescence disappears rapidly over the course of the testing procedure."}},
  "data": [
    {"smiles": "[Cl-].[Na+]", "note": "[Sodium chloride (iodized), Sodium chloride]", "values": [
      {"measurement": "Adverseness / fluorescence indicated by strip test", "setting": "[1]; FIG. 11, dissolved in 75 ml of filtered water, exposed to UV lamp for 3 minutes or 5 minutes", "result": "appears to not be adverse"}
    ]},
    {"smiles": "CC(=O)Oc1ccccc1C(=O)O", "note": "[ASA]", "values": [
      {"measurement": "Adverseness indicated by strip test", "setting": "[2]", "result": "appears to be adverse"},
      {"measurement": "Effect of the medication on adverseness in the presence of alcohol (strip test)", "setting": "[1]", "result": "diminishes adverseness to varying degrees"}
    ]},
    {"smiles": "C[C@H](N)Cc1ccccc1", "note": "[Dextroamphetamine XR 5 mg, Dextroamphetamine]", "values": [
      {"measurement": "Strip test appearance (bright yellow glow = does not cause an adverse effect; dark color = may cause an adverse effect)", "setting": "[3]", "result": "turns a dark color"},
      {"measurement": "Strip test appearance (bright yellow glow = does not cause an adverse effect; dark color = may cause an adverse effect)", "setting": "[4]", "result": "turns a dark color"}
    ]},
    {"smiles": "CCO", "note": "[Alcohol, Ethanol]", "values": [
      {"measurement": "Adverseness indicated by strip test, alcohol alone", "setting": "[1]", "result": "appears to be adverse"}
    ]},
    {"smiles": "CCOc1nc2cccc(C(=O)O)c2n1Cc1ccc(-c2ccccc2-c2nnn[nH]2)cc1", "note": "[candesartan 8 mg, candesartan]", "values": [
      {"measurement": "Strip test appearance (bright yellow glow = does not cause an adverse effect; dark color = may cause an adverse effect)", "setting": "[3]", "result": "glows a bright yellow color"},
      {"measurement": "Strip test appearance (bright yellow glow = does not cause an adverse effect; dark color = may cause an adverse effect)", "setting": "[4]", "result": "glows a bright yellow color"}
    ]},
    {"smiles": "CC(C)Cc1ccc(C(C)C(=O)O)cc1", "note": "(stereo not shown) [ibuprofen]", "values": [
      {"measurement": "Adverseness indicated by strip test", "setting": "[2]", "result": "is not"},
      {"measurement": "Effect of the medication on adverseness in the presence of alcohol (strip test)", "setting": "[1]", "result": "diminishes adverseness to varying degrees"}
    ]},
    {"smiles": "CC(=O)Nc1ccc(O)cc1", "note": "[acetaminophen]", "values": [
      {"measurement": "Effect of the medication on adverseness in the presence of alcohol (strip test)", "setting": "[1]", "result": "diminishes adverseness to varying degrees"}
    ]},
    {"smiles": "OC[C@H]1O[C@H](O[C@]2(CCl)O[C@H](CCl)[C@@H](O)[C@@H]2O)[C@H](O)[C@@H](O)[C@H]1Cl", "note": "[Sucralose]", "values": [
      {"measurement": "Adverseness / fluorescence indicated by strip test, 5 minute exposure", "setting": "[1]", "result": "depleted fluorescence, indicative of a mild adverse effect"},
      {"measurement": "Adverseness indicated by strip test, initially", "setting": "[1]", "result": "initially not adverse"}
    ]}
  ]
}
